Measurements published in ChEMBL document CHEMBL1932998, “Design, synthesis and evaluation of polar head group containing 2-keto-oxazole inhibitors of FAAH” (Bioorg Med Chem, 2012).
The source made the active and inactive calls. The rule behind the calls is not given here.

Experiments:
[1] = target: T1, Fatty-acid amide hydrolase 1 (Rattus norvegicus) (UniProt P97612); test: Inhibition of Sprague-Dawley rat brain FAAH assessed as residual activity at 10 uM after 60 mins by reverse phase HPLC-based fluorescence method
T1 sequence (whole entry): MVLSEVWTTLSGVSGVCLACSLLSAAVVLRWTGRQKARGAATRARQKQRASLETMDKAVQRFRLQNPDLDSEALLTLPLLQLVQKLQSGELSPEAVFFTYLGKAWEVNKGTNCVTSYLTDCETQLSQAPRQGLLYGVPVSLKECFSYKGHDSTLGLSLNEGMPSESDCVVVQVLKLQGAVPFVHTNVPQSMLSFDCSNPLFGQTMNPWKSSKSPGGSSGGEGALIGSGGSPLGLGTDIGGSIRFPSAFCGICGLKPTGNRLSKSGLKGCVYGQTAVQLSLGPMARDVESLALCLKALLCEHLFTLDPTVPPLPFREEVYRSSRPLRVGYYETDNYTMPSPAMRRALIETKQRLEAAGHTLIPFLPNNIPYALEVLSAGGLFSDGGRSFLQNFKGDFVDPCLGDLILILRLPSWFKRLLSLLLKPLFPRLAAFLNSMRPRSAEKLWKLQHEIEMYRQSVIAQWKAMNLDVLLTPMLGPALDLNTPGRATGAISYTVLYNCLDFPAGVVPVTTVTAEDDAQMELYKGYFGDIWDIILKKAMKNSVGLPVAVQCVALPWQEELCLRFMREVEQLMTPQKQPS

[2] = target: T1, Fatty-acid amide hydrolase 1 (Rattus norvegicus); test: (§1) Inhibition of Sprague-Dawley rat brain microsome FAAH assessed as reduction in 4-pyren-1-ylbutanoic acid release after 60 mins by reverse phase HPLC-based fluorescence method
[3] = target: T2, Fatty-acid amide hydrolase 1 (Rattus norvegicus, UniProt P97612); test: as §1
T2 sequence (P97612 whole entry): T1 sequence (whole entry)

[4] = Inhibition of cPLA2alpha at 1 uM
[5] = target: Acyl-protein thioesterase 1 (Homo sapiens) (UniProt O75608); test: Inhibition of APT1 at 50 uM
Sequence of Acyl-protein thioesterase 1 (Homo sapiens) (O75608 whole entry): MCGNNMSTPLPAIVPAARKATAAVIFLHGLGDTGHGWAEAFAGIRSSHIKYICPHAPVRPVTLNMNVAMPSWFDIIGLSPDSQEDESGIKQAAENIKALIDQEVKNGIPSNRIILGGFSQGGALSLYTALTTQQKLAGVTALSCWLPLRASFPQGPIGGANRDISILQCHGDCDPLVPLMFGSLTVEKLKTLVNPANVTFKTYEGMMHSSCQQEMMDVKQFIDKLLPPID

[6] = target: Acyl-protein thioesterase 2 (Homo sapiens) (UniProt O95372); test: Inhibition of APT2 at 50 uM
Sequence of Acyl-protein thioesterase 2 (Homo sapiens) (O95372 whole entry): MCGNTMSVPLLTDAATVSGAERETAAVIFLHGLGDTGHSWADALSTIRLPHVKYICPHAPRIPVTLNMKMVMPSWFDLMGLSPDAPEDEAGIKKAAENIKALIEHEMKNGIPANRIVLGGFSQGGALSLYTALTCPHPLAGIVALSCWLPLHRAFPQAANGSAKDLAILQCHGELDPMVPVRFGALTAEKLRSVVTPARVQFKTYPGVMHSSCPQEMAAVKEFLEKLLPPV

## CCCCCCCC(=O)c1ncc(CCCCCCSCCCN(C)C)o1
[1]
  Activity: 78%

## CCCCCCCCCCCC(=O)c1ncc(CCCSCCCN(C)C)o1
[2]
  inhibition: inactive
[1]
  Activity: 40%

## CCCCCCCC(=O)c1ncc(CCCCS(=O)(=O)CCCN(C)C)o1
[1]
  Activity: 59%

## CCCCCCCC(=O)c1ncc(CCS(=O)(=O)CCCN(C)C)o1
[3]
  IC50: 2000 nM
[1]
  Activity: 23%

## CCCCCCCCCCCC(=O)c1ncc(CCCCCCS(=O)(=O)CCCN(C)C)o1
[2]
  inhibition: inactive
[1]
  Activity: 51%

## Cc1nc(-c2ccccc2)c(-c2ccccc2)n1CCCCCCNC(=O)Oc1ccccc1
[3]
  IC50: 340 nM

## CCCCCCCC(=O)c1ncc(CCCCCSCCCN(C)C)o1
[1]
  Activity: 78%

## CCCCCCCC(=O)c1ncc(CCS(=O)(=O)CCC[N+](C)(C)C)o1
[1]
  Activity: 61%

## CCCCCCCC(=O)c1ncc(CCCCSCCCN(C)C)o1
[1]
  Activity: 48%

## CCCCCCCCCCCC(=O)c1ncc(CCCS(=O)(=O)CCC[N+](C)(C)C)o1
[3]
  IC50: 1900 nM
[1]
  Activity: 13%

## CCCCCCCCCCCC(=O)c1ncc(CCSCCC[N+](C)(C)C)o1
[2]
  inhibition: inactive
[1]
  Activity: 78%

## CCCCCCCCCCCC(=O)c1ncc(CCCCCCSCCC[N+](C)(C)C)o1
[2]
  inhibition: inactive
[1]
  Activity: 71%

## CCCCCCCCCCCC(=O)c1ncc(CCCCSCCCN(C)C)o1
[2]
  inhibition: inactive
[1]
  Activity: 49%

## CCCCCCCCCCCC(=O)c1ncc(CCCCS(=O)(=O)CCCN(C)C)o1
[2]
  inhibition: inactive
[1]
  Activity: 32%

## CCCCCCCCCCCC(=O)c1ncc(CCCCSCCC[N+](C)(C)C)o1
[2]
  inhibition: inactive
[1]
  Activity: 78%

## CCCCCCCC(=O)c1ncc(CCCCCCS(=O)(=O)CCCN(C)C)o1
[1]
  Activity: 62%

## CCCCCCCC(=O)c1ncc(CCCCCS(=O)(=O)CCCN(C)C)o1
[1]
  Activity: 73%

## CCCCCCCC(=O)c1ncc(CCCCSCCC[N+](C)(C)C)o1
[1]
  Activity: 68%

## CCCCCCCC(=O)c1ncc(CCSCCCN(C)C)o1
[1]
  Activity: 34%

## CCCCCCCC(=O)c1ncc(CCCS(=O)(=O)CCCN(C)C)o1
[3]
  IC50: 2400 nM
[1]
  Activity: 22%

## CCCCCCCC(=O)c1ncc(CCCSCCCN(C)C)o1
[1]
  Activity: 64%

## CCCCCCCCCCCC(=O)c1ncc(CCCCCSCCCN(C)C)o1
[2]
  inhibition: inactive
[1]
  Activity: 64%

## CCCCCCCCCCCC(=O)c1ncc(CCCCCCS(=O)(=O)CCC[N+](C)(C)C)o1
[2]
  inhibition: inactive
[1]
  Activity: 31%

## CCCCCCCCCCCC(=O)c1ncc(CCCCS(=O)(=O)CCC[N+](C)(C)C)o1
[2]
  inhibition: inactive
[1]
  Activity: 49%

## O=C(CCCCCc1ccccc1)c1nc2ncccc2o1
[3]
  IC50: 2.9 nM

## CCCCCCCCCCCC(=O)c1ncc(CCS(=O)(=O)CCC[N+](C)(C)C)o1
[3]
  IC50: 1400 nM
[1]
  Activity: 11%

## CCCCCCCC(=O)c1ncc(CCCCCCSCCC[N+](C)(C)C)o1
[1]
  Activity: 82%

## CCCCCCCCCCCC(=O)c1ncc(CCCCCCSCCCN(C)C)o1
[2]
  inhibition: inactive
[1]
  Activity: 72%

## CCCCCCCCCCCC(=O)c1ncc(CCCCCS(=O)(=O)CCCN(C)C)o1
[2]
  inhibition: inactive
[1]
  Activity: 53%

## CCCCCCCCCCCC(=O)c1ncc(CCS(=O)(=O)CCCN(C)C)o1
[3]
  IC50: 370 nM
[1]
  Activity: 3%

## CCCCCCCC(=O)c1ncc(CCCS(=O)(=O)CCC[N+](C)(C)C)o1
[1]
  Activity: 53%

## CCCCCCCCCCCC(=O)c1ncc(CCCCCS(=O)(=O)CCC[N+](C)(C)C)o1
[2]
  inhibition: inactive
[1]
  Activity: 57%

## CCCCCCCCCCCC(=O)c1ncc(CCCS(=O)(=O)CCCN(C)C)o1
[3]
  IC50: 290 nM
[1]
  Activity: 2%
[4]
  inhibition: inactive
[5]
  inhibition: inactive
[6]
  inhibition: inactive

## CCCCCCCCCCCC(=O)c1ncc(CCSCCCN(C)C)o1
[2]
  inhibition: inactive
[1]
  Activity: 27%

## CCCCCCCC(=O)c1ncc(CCCCS(=O)(=O)CCC[N+](C)(C)C)o1
[1]
  Activity: 83%

## CCCCCCCC(=O)c1ncc(CCSCCC[N+](C)(C)C)o1
[1]
  Activity: inactive

## CCCCCCCC(=O)c1ncc(CCCCCS(=O)(=O)CCC[N+](C)(C)C)o1
[1]
  Activity: 70%
